Test results reported in US20230035479A1, “METHODS AND COMPOSITIONS FOR REDUCING HAIR GREYING” (President and Fellows of Harvard College, priority 2019, published 2023).
Read-outs that look alike come from different tables or passages of the source.

Assays:
C57BL/6J mice = type: in vivo, mouse
[1] = system: melanocyte stem cells (MeSCs); experiment: MeSC numbers in hair follicles, TRP2 immunofluorescence or membrane GFP tracing; conditions: for MeSC preservation in RTX-injected animals: topical 5 mg/kg, until 48 hours post RTX injection, full anagen
Procedure: For RTX injection, mice received injections of RTX (30-100 μg/kg) in the flank for 1-3 days as described previously [15, 16, 51-56]. […] Control mice were treated with the vehicle only. RTX injection was done either in full anagen (P31-P36) or in 1st telogen (P21). […] Mice were treated for three days (P28-P30). […] RTX was given at Anagen VI (P31˜P36).

mature melanocytes = experiment: Differentiated/mature melanocytes and hair bulb cells, immunofluorescence; type: in vivo, mouse; conditions: full anagen; for proliferation of cells in the hair bulb: RTX-injected animals, topical CDK inhibitors
Procedure: Loss of hair pigmentation can be due to defects in melanin synthesis, loss of differentiated melanocytes, or problems in MeSC maintenance. To understand how stress impacts the melanocyte lineage, RTX was injected into mice in anagen, when both MeSCs and differentiated melanocytes were present but located within distinct compartments—MeSCs were near to the bulge while differentiated melanocytes were at the hair bulb (FIG. 1E). […] These differentiated melanocytes continued to generate pigments, and the hair coat remained black (FIGS. 6F-6G). When hair follicles in the RTX-injected animals entered catagen and telogen, many have lost all MeSCs (FIG. 1E, Telo). Subsequently, when the next round of anagen initiated, differentiated melanocytes were not produced to color new hair shafts, and unpigmented hairs emerged (FIG. 1E, 2nd Ana, FIG. 6H). […] In this case, unpigmented hairs appeared as soon as new hairs emerged in the following anagen (FIGS. 7A-7B). […] MeSCs were also lost or reduced in mice subjected to restraint stress or chronic unpredictable stress (FIG. 7C). Since stress depleted MeSCs, the loss of hair pigmentation in all three conditions was permanent (FIG. 7D).
Quiescence is a key feature of many somatic stem cells. Loss of quiescence has been postulated to cause MeSC loss in Bcl2 mutants. To examine if stress alters MeSCs quiescence, RTX or norepinephrine was injected into mice that had entered full anagen, when MeSCs are normally quiescent. A dramatic increase in the number of proliferating MeSCs was seen within 24 hours after RTX or norepinephrine injection—about 50% of MeSCs became positive for Phospho-Histone H3, an M phase marker (FIG. 4B). This number is in sharp contrast to the MeSC proliferation seen in early anagen (˜6%), the only stage when MeSCs proliferate to self-renew (FIG. 11E).
(§1) Mouse skin samples were fixed using 4% paraformaldehyde (PFA) for 15 minutes at room temperature, washed 6 times with PBS, and immersed in 30% sucrose overnight at 4° C. Samples were then embedded in OCT (Sakura Finetek). 35˜50 μm sections were fixed in 4% paraformaldehyde (PFA) for 2 minutes and washed with PBS and PBST. Slides were then blocked using blocking buffer (5% donkey serum; 1% BSA, 2% cold water fish gelatin in 0.3% Triton in PBS) for 1 hour at room temperature, followed by staining with primary antibodies overnight at 4° C. and secondary antibody for 4 hours at room temperature. For sympathetic nerve density quantification, 90 μm sections were used. EdU was developed for 1 hour using the Click-It reaction according to manufacturer instructions (Thermo Fisher Scientific). TUNEL assay was performed according to manufacturer instructions (Roche). Fontana—Masson staining was performed according to manufacturer instructions (Market Lab ML7255). Antibodies used: TRP2 (Santa Cruz 10451, 1:800), tyrosine hydroxylase (rabbit, Millipore AB152, 1:1000 or sheep, Millipore AB1542, 1:150-1:300), c-Fos (Abcam, 190289, 1:1000), γ-H2AX (Cell Signaling, 9718, 1:400), phospho-histone H3 (rabbit, Cell Signaling Technology 3377S, 1:500), cleaved caspase 3 (rabbit, Cell Signaling Technology 9664S, 1:400), GFP (rabbit, Abcam ab290, 1:1000 or chicken, Ayes labs GFP-1010, 1:200), CD3 (eBioscience 14-0032-81, 1:800), CD11b (eBioscience 14-0112-81, 1:800), Phospho-CREB (Cell Signaling 9198, 1:800), MITF (Abcam ab12039, 1:400).

[2] = system: melanocyte stem cells (MeSCs); experiment: MeSC proliferation, Phospho-Histone H3 immunofluorescence; conditions: for MeSC quiescence in RTX-injected animals: topical 5 mg/kg, until 48 hours post RTX injection
Procedure: For RTX injection, mice received injections of RTX (30-100 μg/kg) in the flank for 1-3 days as described previously [15, 16, 51-56]. […] Control mice were treated with the vehicle only. RTX injection was done either in full anagen (P31-P36) or in 1st telogen (P21). […] RTX was given at Anagen VI (P31˜P36).
All images were acquired using a Zeiss LSM 880 confocal microscope or Keyence microscope using ×20 or ×40 magnification lenses. Images are presented as Maximum Intensity Projection images. For colocalization analysis, images are presented as a single Z stack.

sympathetic neurons = experiment: c-FOS immunofluorescence in sympathetic ganglia; type: in vivo, mouse; conditions: TH-CreER; Gq-DREADD mice injected with CNO
Gq-DREADD = Gq-DREADD (Homo sapiens, UniProt P20309, A239G/Y149C); experiment: Sympathetic nerve activation with Gq-DREADD by intradermal CNO
Sequence of Gq-DREADD (P20309 whole entry Y149C/A239G): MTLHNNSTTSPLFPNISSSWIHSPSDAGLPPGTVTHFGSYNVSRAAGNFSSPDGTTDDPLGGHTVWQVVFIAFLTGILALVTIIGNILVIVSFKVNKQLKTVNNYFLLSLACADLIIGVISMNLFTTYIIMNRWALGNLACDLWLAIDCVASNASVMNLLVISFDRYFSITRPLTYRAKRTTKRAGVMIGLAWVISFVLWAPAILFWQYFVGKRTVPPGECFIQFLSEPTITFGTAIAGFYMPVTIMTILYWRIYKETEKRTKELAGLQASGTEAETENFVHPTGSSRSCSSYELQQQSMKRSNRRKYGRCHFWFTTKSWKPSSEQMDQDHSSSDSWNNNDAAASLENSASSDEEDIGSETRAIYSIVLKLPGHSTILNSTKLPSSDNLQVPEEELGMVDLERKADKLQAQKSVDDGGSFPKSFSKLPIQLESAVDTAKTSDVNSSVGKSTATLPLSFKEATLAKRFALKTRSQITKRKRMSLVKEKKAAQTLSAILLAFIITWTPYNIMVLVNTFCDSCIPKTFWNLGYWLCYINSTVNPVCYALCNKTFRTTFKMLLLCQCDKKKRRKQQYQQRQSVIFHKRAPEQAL
Description: To determine if sympathetic nerve activation in the absence of stress is sufficient to drive MeSC loss, a chemogenetic approach was taken using the Designer Receptor Exclusively Activated by Designer Drugs (DREADDs) system [3, 4]. Gq-DREADD is an artificial Gq-protein coupled receptor activated by the inert molecule Clozapine N-Oxide (CNO) but not by endogenous ligands. Activation of Gq-DREADD leads to intracellular calcium release and neuronal firing. TH-CreER; CAG-lsl-Gq-DREADD; Rosa-mT/mG mice were generated, which allowed for artificial activation of sympathetic nerves with CNO (FIG. 3D).
Control mice were treated with the vehicle only. […] For tamoxifen treatment, tamoxifen was diluted in corn oil to a final concentration of 20 mg/ml. To induce recombination, 20 mg/kg was injected intraperitoneally once per day for 4-7 days. For mosaic induction of Tyr-CreER and TH-CreER, 20 mg/kg tamoxifen was injected intraperitoneally once per day for 3 days. […] Control animals were injected with equivalent volume of vehicle (0.1% ascorbic acid in 0.9% sterile NaCl) with fluorescent beads. The injection sites were marked using water resistant ink. […] For Induction of Gq-DREADD, 50 μl CNO (1 mg/ml in 0.9% sterile saline) was injected intradermally into experimental animals together with fluorescent beads at full anagen (P31˜P36). Control animals were injected with equivalent volume of vehicle (0.9% sterile saline) together with fluorescent beads.
(§4) For intradermal injection experiments (NE or CNO), unpigmented hairs were quantified by plucking ˜100 hairs from each injection site (marked by water resistant ink at the time of injection), and the percentage of white hairs were calculated by dividing the number of white hairs by the total number of hairs plucked.

human hair follicles = experiment: Cultured human hair follicles, pigmented bulge or outer root sheath cells; type: cell-based; conditions: 24 hours
Procedure: (§2) FIG. 14C provides quantification of the proportion of follicles that contain pigmented bulge or outer root sheath cells vs those lacking such pigmented cells outside of the bulb region. Human discarded hair bearing skin was cultured for 3 days with single hairs being isolated and grown in semi solid agarose William E medium with vehicle or norepinephrine (0.1 mM) for 24 hours. The cells were assessed after culture to identify those that were pigmented from those that were not. The presence of pigmented cells indicates senescence of melanocyte stem cells. Signal in vehicle control likely reflects the middle-age of the donor follicles.
Hair follicles from discarded scalp skin of […] was cultured for 3 days. Single hairs were isolated and grown in a semi agarose William E medium with vehicle, norepinephrine (NE) (0.1 mM), or NE (0.1 mM) +butoxamine (0.1 mM) (β2 blocker) for 24 hours. The graph indicates the proportion of follicles containing (or lacking) pigmented melanocytes (see arrows) in the bulge or outer root sheath locations, indicating melanocyte stem cell differentiation/senescence.

[3] = system: melanocyte stem cells (MeSCs); experiment: Corticosterone feeding in drinking water; conditions: corticosterone elevated via feeding, 35 μg/ml in drinking water, three days
Procedure: Since all stressors led to elevated corticosterone and norepinephrine in the blood, it was considered if these stress-induced circulating factors played a role in stress-induced MeSC loss.
Control mice were treated with the vehicle only. […] Mice were treated for three days (P28-P30).

CREB/ATF1 = CREB/ATF1 phosphorylation in human primary melanocytes; type: cell-based; conditions: 10 uM, after 15 minutes
Procedure: as §2
(§3) Primary human melanocytes were derived from neonatal foreskin as previously described and cultured in Medium 254 (Invitrogen, Thermo Fisher Scientific). Melanocytes (passages 2 and 4) were starved for 24 hours in HAM's F-10 +1% penicillin/streptomycin/glutamine before adding NE (10 uM).

[4] = system: melanocyte stem cells (MeSCs); experiment: Apoptosis (active caspase-3, TUNEL) and DNA damage (gamma-H2AX) in MeSCs; type: in vivo, mouse
Procedure: Radiation causes DNA damage in MeSCs, leading to their differentiation within the niche.
as §1

[5] = system: primary human melanocytes; experiment: qRT-PCR in cultured primary human melanocytes treated with norepinephrine; type: cell-based
Procedure: as §3
The cDNA libraries were synthesized using Superscript IV VILO master mix with ezDNase (Thermo Fisher). Quantitative real time PCR was performed using power SYBR green (Thermo Fisher) in an ABI QuantStudio6 Flex qPCR instrument. Ct values were normalized to an internal control of beta-actin.

ADRB2 on MeSCs = ADRB2 on MeSCs (Mus musculus, UniProt P18762); experiment: Hair greying after intradermal norepinephrine injection
Sequence of ADRB2 on MeSCs (P18762 whole entry): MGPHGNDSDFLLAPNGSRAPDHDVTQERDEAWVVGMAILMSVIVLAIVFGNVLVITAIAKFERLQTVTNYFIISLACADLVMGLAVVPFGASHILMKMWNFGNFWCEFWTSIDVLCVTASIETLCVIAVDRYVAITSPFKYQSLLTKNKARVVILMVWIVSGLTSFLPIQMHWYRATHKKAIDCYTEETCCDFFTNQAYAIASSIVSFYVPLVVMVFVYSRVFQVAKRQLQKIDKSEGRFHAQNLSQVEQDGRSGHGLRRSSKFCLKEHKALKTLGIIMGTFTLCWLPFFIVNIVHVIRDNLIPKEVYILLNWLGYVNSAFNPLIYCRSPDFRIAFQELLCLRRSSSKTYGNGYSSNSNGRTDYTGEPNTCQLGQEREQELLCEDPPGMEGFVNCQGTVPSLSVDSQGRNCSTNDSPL
Procedure: To test if elevated norepinephrine was sufficient to cause hair greying in the absence of stress, norepinephrine was introduced locally to the skin via intradermal injections.
For tamoxifen treatment, tamoxifen was diluted in corn oil to a final concentration of 20 mg/ml. To induce recombination, 20 mg/kg was injected intraperitoneally once per day for 4-7 days. […] 50 μm was injected intradermally into experimental animals together with fluorescent beads at full anagen (P31˜P36). Control animals were injected with equivalent volume of vehicle (0.1% ascorbic acid in 0.9% sterile NaCl) with fluorescent beads. The injection sites were marked using water resistant ink.
as §4

[6] = sympathetic nerve ablation, 100 mg/kg intraperitoneally daily P18 to P22
[7] = topical 5 mg/kg in ethanol, 48 h before to 48 h after RTX

NCCc1cc(O)c(O)cc1O [6-OHDA, 6-hydroxy dopamine]
effect on RTX-induced hair greying (C57BL/6J mice; [6]): blocked RTX-induced hair greying
effect on RTX-induced MeSC loss [1, 6]: blocked RTX-induced hair greying and MeSC loss

O=C(NC1CCNCC1)c1n[nH]cc1NC(=O)c1c(Cl)cccc1Cl [AT7519, N-(4-Piperidinyl)-4-(2,6-dichlorobenzoylamino)-1H-pyrazole-3-carboxamide]
proliferation of cells in the hair bulb (mature melanocytes): remained largely normal
MeSC quiescence in RTX-injected animals [2]: remained quiescent
effect on RTX-induced hair greying (C57BL/6J mice; [7]): inhibits RTX-induced hair greying
MeSC preservation in RTX-injected animals [1]: preserved in the niche

C[N+]1([O-])CCN(C2=Nc3cc(Cl)ccc3Nc3ccccc32)CC1 [CNO, Clozapine N-Oxide]
c-FOS activation in sympathetic ganglia (sympathetic neurons): induced c-FOS activation in sympathetic ganglia
hair greying at CNO injection sites (Gq-DREADD; TH-CreER, Gq-DREADD mice): led to loss of MeSCs and hair greying at the sites where CNO was injected
loss of MeSCs at CNO injection sites (Gq-DREADD; TH-CreER, Gq-DREADD mice): led to loss of MeSCs
MeSC loss with mosaic TH-CreER activation (Gq-DREADD; low dose of tamoxifen): resulted in MeSC loss only in hair follicles innervated by DREADD-positive nerve fibres

CN1CC[C@H](c2c(O)cc(O)c3c(=O)cc(-c4ccccc4Cl)oc23)[C@H](O)C1 [Flavopiridol]
proliferation of cells in the hair bulb (mature melanocytes): remained largely normal
MeSC quiescence in RTX-injected animals [2]: remained quiescent
effect on RTX-induced hair greying (C57BL/6J mice; [7]): inhibits RTX-induced hair greying
MeSC preservation in RTX-injected animals [1]: preserved in the niche

COc1ccc(OC)c(C(O)C(C)NC(C)(C)C)c1 (centres unmarked) [butoxamine]
effect on norepinephrine-induced melanocyte pigmentation/senescence (human hair follicles; NE 0.1 mM + butoxamine 0.1 mM, follicles of person): prevents norepinephrine-induced melanocyte pigmentation/senescence

C[C@]12C[C@H](O)[C@H]3[C@@H](CCC4=CC(=O)CC[C@@]43C)[C@@H]1CC[C@@H]2C(=O)CO [corticosterone]
changes in MeSCs [3]: no changes in MeSCs or hair pigmentation
changes in hair pigmentation [3]: no changes in MeSCs or hair pigmentation

N=C(N)NCCN1CCCCCCC1 [guanethidine]
effect on MeSC loss upon RTX injection ([1]; mouse, in vivo): suppressed hair greying and MeSC loss

NC[C@H](O)c1ccc(O)c(O)c1 [norepinephrine]
proliferation or apoptosis in mature melanocytes (mature melanocytes; after injection): no changes in proliferation or apoptosis
phosphorylation/activation of CREB/ATF1 (CREB/ATF1): induces transient phosphorylation/activation of CREB/ATF1
active caspase-3 or TUNEL signals in MeSCs ([4]; before MeSC depletion from the niche, 1 day after injection): failed to detect active caspase-3 or TUNEL signals
gamma-H2AX foci (DNA damage) in MeSCs ([4]; following injection): failure to detect gamma-H2AX foci
expression of proliferation and differentiation genes ([5]; cultured human melanocyte cells, NE 10 uM): rapid induction of proliferation genes like Cdk2, and differentiation genes like Mitf and Tyr
expression of MITF and MITF target genes ([5]; cultured primary human melanocytes): induces MITF and multiple MITF target genes
MeSCs positive for Phospho-Histone H3 ([2]; within 24 hours after injection, full anagen): about 50%
hair greying at injection sites (ADRB2 on MeSCs; HFSC-specific adrb2 knockout mice): promoted hair greying at the injection sites
hair greying at injection sites (ADRB2 on MeSCs; MeSC-specific adrb2 knockout mice): failed to cause hair greying
hair greying at injection sites (ADRB2 on MeSCs; wild type mice, absence of stress): promoted hair greying at the injection sites
melanocyte stem cell pigmentation in human hair follicles (human hair follicles; norepinephrine 0.1 mM): heavy norepinephrine-induced melanocyte stem cell pigmentation
